pIC50: −log10 of the molar value.

Consider eleven compounds from US9416123B2, “Kinase modulators for the treatment of cancer” (Synovo GmbH, priority 2011, dated 2016).

The target in series [1] is Src (Homo sapiens (Human), UniProt P12931). The series can be described thus: Kinase assay (33P FlashPlate) Src. The note with it: read-out: IC50 Src (n = 1); Table 1, n = 1.
Method: (§1) FlashPlates from Perkin Elmer (Boston, Mass., USA) with a 50 μl reaction volume are used. The reaction cocktail was pipetted in 4 steps in the following order: 15 μl of ATP solution (in H2O), 20 μl of assay buffer (see below), 5 μl of test sample in 10% DMSO, 10 μl of enzyme/substrate mixture (in H2O). […] Certain assays also contained 1 mM CaCl2, 4 mM EDTA, 5 μg/ml Phosphatidylserine and 1 μg/ml 1.2-Dioleyl-glycerol. The MYLK2, CAMK1D, CAMK2A, CAMK2B, CAMK2D, CAMK4, CAMKK2, DAPK2 and EEF2K assays additionally contained 1 μg/ml Calmodulin and 0.5 mM CaCl2. The PRKG1 and PRKG2 assays additionally contained 1 μM cGMP. Recombinant Protein Kinases: All protein kinases were expressed in Sf9 insect cells or in E. coli as recombinant GST-fusion proteins or His-tagged proteins. All kinases were produced from human cDNAs, except JAK2, for which the mouse cDNA was used. […] The purity of the protein kinases was examined by SDS-PAGE/coomassie staining. The identity of the protein kinases was checked by mass spectroscopy. Assays were made under license from Chemicon International Inc. for JAK2. […] The reaction was stopped with 50 μl of 2% (v/v) H3PO4, plates were aspirated and washed two times with 200 μl 0.9% (w/v) NaCl. All assays were performed with a BeckmanCoulter Biomek 2000/SL robotic system.
In series [2] the target is VEGFR-2 (Homo sapiens (Human), UniProt P35968). Briefly: Kinase assay (33P FlashPlate) VEGFR-2. The note with it: read-out: IC50 VEGFR-2 (n = 1); Table 1, n = 1.
Sequence of VEGFR-2 (P35968 20-1356): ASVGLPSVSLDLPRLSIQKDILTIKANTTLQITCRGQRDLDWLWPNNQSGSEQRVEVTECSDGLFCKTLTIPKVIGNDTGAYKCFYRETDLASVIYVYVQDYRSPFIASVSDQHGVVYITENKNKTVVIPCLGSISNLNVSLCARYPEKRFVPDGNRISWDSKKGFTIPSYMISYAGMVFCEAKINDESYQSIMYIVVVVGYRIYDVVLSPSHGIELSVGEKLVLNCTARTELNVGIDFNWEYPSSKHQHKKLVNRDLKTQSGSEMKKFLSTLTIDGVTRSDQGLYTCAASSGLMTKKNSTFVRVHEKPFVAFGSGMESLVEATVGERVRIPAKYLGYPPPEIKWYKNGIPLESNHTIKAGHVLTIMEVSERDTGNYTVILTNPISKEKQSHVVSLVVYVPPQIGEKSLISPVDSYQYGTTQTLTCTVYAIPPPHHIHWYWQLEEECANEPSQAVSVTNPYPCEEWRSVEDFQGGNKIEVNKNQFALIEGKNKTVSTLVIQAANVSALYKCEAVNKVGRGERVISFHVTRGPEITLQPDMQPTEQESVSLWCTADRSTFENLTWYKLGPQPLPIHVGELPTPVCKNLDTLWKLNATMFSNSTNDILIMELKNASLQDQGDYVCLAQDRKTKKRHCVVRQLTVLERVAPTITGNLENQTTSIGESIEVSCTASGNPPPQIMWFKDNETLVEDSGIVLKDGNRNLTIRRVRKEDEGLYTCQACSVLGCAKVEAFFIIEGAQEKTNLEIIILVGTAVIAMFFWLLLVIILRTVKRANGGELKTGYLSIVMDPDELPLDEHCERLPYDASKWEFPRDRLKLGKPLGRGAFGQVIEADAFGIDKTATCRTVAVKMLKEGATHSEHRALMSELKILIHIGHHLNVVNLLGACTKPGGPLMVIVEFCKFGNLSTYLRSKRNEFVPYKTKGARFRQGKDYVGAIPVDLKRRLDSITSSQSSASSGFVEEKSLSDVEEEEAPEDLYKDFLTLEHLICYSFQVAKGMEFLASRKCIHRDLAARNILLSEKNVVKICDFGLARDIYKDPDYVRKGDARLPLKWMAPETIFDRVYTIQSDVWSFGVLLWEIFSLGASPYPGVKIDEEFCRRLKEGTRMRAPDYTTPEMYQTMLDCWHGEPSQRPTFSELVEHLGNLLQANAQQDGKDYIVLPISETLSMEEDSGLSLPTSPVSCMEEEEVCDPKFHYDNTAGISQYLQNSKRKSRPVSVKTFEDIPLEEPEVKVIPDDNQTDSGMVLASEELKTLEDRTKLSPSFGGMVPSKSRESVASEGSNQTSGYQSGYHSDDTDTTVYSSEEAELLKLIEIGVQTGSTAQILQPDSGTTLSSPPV
Method: as §1
Series [3] concerns the target B-Raf V600E (Homo sapiens (Human), UniProt P15056, V600E). Briefly: Kinase assay (33P FlashPlate) B-Raf V600E. The note with it: read-out: IC50 B-Raf V600E (n = 1); Table 1, n = 1.
Method: as §1
Series [4] addresses RIPK2 (Homo sapiens (Human), UniProt O43353). Briefly: Kinase assay (33P FlashPlate) RIPK2. In kind it is biochemical. Particulars: Table 3.

Sequence of B-Raf V600E (P15056 whole entry V600E): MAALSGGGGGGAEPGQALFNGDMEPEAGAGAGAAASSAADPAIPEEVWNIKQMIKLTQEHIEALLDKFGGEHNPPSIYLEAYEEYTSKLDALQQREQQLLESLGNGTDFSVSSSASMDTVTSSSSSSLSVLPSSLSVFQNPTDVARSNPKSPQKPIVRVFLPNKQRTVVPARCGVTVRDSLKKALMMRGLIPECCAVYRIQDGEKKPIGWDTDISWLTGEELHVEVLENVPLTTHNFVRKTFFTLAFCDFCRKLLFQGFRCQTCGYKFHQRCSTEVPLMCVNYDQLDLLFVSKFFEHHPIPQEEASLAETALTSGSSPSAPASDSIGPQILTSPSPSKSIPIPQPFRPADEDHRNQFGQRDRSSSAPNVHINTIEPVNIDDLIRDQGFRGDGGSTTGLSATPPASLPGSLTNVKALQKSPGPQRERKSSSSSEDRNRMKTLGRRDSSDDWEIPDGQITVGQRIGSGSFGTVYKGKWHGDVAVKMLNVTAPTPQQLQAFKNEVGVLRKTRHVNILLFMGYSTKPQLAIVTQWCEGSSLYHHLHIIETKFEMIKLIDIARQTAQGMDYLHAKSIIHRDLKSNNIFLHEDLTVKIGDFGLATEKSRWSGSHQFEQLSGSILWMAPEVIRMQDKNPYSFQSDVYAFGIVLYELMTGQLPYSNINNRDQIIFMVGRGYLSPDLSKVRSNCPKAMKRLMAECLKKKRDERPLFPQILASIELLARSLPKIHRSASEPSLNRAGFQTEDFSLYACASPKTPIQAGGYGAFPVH
Sequence of Src (P12931 whole entry, looked up): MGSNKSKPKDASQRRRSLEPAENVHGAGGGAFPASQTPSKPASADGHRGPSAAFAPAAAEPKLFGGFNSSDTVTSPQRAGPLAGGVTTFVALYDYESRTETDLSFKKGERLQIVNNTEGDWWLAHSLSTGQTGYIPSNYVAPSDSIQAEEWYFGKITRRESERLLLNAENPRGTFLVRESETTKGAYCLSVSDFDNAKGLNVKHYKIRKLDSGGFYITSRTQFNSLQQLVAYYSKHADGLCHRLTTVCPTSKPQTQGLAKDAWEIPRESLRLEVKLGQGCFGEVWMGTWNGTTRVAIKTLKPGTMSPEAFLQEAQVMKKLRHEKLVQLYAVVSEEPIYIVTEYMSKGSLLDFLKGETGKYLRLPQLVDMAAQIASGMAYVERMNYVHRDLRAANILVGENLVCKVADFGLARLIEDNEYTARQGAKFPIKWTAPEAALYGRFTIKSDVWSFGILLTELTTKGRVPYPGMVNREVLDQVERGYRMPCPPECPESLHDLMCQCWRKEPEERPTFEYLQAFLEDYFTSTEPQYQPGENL
Sequence of RIPK2 (O43353 whole entry): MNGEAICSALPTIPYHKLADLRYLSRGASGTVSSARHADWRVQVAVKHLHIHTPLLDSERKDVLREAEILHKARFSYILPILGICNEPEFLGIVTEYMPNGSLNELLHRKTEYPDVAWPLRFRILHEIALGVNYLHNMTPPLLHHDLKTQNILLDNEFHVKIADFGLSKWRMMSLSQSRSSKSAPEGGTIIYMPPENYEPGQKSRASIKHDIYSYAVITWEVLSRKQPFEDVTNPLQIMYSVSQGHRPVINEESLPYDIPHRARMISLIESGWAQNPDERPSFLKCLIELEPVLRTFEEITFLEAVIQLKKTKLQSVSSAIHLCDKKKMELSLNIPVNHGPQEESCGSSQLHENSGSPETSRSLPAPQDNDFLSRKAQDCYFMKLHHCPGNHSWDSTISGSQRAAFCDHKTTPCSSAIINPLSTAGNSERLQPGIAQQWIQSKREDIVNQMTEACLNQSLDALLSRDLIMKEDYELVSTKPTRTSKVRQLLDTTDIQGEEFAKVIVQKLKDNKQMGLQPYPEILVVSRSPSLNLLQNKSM

In general, pIC50 refers to −log10 of the IC50, conventionally taken in molar units. For the compound `Clc1cc(Cl)c(N/N=C/c2ccncc2)c(Cl)c1` [Compound 3a], the values for the negative logarithm of the IC50 (pIC50) in series [1], in series [2] and in series [3] were 5.70, 6.68 and 5.60, respectively.

In the case of `Nc1c(-c2ccc(F)cc2)c(-c2ccncc2)nn1-c1ccccc1` [Compound 5, 4-(4-Fluorophenyl)-1-phenyl-3-(pyridine-4-yl)-1H-pyrazol-5-amine], the pIC50 in series [1] is 4.28; in series [2] it was 5.62; in series [3] it was 6.05.

With `Nc1c(-c2ccc(F)cc2)c(-c2ccncc2)nn1-c1c(Cl)cc(Cl)cc1Cl` [Compound 6], the pIC50 in series [4] is 7.39.

As a reminder, the melting point is the temperature, or range, at which the solid turns liquid. `COc1ccc(-n2nc(-c3ccncc3)c(-c3ccc(F)cc3)c2N)cc1` [Compound 8] registered a melting point of 200 °C. For the same compound, the pIC50 in series [1] was 4.64. In addition, in series [2], the negative logarithm of the IC50 (pIC50) is 5.72. Moreover, the pIC50 in series [3] is 6.07.

Turning to `N#Cc1ccc(-n2nc(-c3ccncc3)c(-c3ccc(F)cc3)c2N)cc1` [Compound 11, 4-(5-Amino-4-(4-fluorophenyl)-3-(pyridine-4-yl)-1H-pyrazol-1-yl)benzonitrile], the pIC50 in series [1] is < 4.00; in series [2] it was 5.89; in series [3], 5.77.

For the compound `NC(=O)c1c(-c2ccncc2)nn(-c2c(Cl)cc(Cl)cc2Cl)c1N` [Compound 14, 5-Amino-3-(pyridin-4-yl)-1-(2,4,6-trichlorophenyl)-1H-pyrazole-4-carboxamide], the pIC50 was 5.19 in series [1], 4.51 in series [2] and < 4.00 in series [3].

With `CCOC(=O)c1c(-c2ccncc2)nn(-c2c(Cl)cc(Cl)cc2Cl)c1N` [Compound 15, Ethyl 5-amino-3-(pyridin-4-yl)-1-(2,4,6-trichlorophenyl)-1H-pyrazole-4-carboxylate], the pIC50 in series [1], in series [2] and in series [3] was < 4.00 in each case.

`Nc1c(C(=O)O)c(-c2ccncc2)nn1-c1c(Cl)cc(Cl)cc1Cl` [Compound 16, 5-Amino-3-(pyridine-4-yl)-1-(2,4,6-trichlorophenyl)-1H-pyrazole-4-carboxylic acid] returned a melting point of 208 °C. For the same compound, the negative logarithm of the IC50 (pIC50) in series [1] was 4.26. In addition, the negative logarithm of the IC50 (pIC50) in series [2] is 4.37. Also, the negative logarithm of the IC50 (pIC50) in series [3] was < 4.00.

With `NC(=O)c1c(-c2ccncc2)nn(-c2ccccc2)c1N` [Compound 18, 5-Amino-1-phenyl-3-(pyridine-4-yl)-1H-pyrazole-4-carboxamide], the pIC50 in series [1] is 4.72; in series [2], 4.32; in series [3], 4.19.

In the case of `Nc1cc(-c2ccncc2)nn1-c1c(Cl)cc(Cl)cc1Cl` [Compound 19, 3-(Pyridin-4-yl)-1-(2,4,6-trichlorophenyl)-1H-pyrazol-5-amine], the negative logarithm of the IC50 (pIC50) was < 4.00 in series [1], 4.06 in series [2] and < 4.00 in series [3].

On to `Fc1ccc(-c2cn(-c3ccc(C(F)(F)F)cc3)nc2-c2ccncc2)cc1` [Compound 20], for which the negative logarithm of the IC50 (pIC50) in series [1] was 4.92; in series [2], 4.57; in series [3], 5.57.
